From patent US20150344540A1, “NOVEL GLP-1 RECEPTOR AGONISTS WITH CHOLESTEROL EFFLUX ACTIVITY” (NOVO NORDISK A/S, priority 2012, published 2015) come the findings set out here.

Like-named read-outs stand apart in the source and are kept apart here. Where a SMILES comes first, the peptide text is derived from it. [ ]: non-standard residue; d: D form. Aib = CC(C)(N)C(=O)O

The target of experiment [1] is human GLP-1 receptor (Homo sapiens, UniProt P43220). In words: Functional GLP-1 receptor assay, in vitro potency (CRE luciferase; whole cells). The format is cell-based. The conditions noted are these: BHK cells expressing human GLP-1 receptor.
Sequence of human GLP-1 receptor (P43220 24-463): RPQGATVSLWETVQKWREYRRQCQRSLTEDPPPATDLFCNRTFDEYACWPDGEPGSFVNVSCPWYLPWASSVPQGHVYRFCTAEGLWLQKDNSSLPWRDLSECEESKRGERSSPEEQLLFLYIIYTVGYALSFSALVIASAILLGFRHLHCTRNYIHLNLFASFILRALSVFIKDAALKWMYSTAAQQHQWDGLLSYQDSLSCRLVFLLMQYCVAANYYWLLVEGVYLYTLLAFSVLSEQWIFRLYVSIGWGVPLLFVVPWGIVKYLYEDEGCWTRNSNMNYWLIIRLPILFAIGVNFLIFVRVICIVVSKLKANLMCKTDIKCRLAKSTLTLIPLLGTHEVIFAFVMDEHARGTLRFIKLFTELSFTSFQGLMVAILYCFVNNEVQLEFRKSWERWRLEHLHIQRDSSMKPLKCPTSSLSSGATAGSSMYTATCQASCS
In experiment [2] the test system is Mouse monocyte/macrophage cell line, RAW 264.7. In words: Cholesterol efflux assay (3H-cholesterol, macrophage cell line). The conditions noted are these: RAW 264.7, 4 hrs incubation, 0.1% human serum albumin, ABCA1-mediated efflux. The format is cell-based.
Where [3] appears, read: 0% HSA, read-out: GLP1R CRE luc 0% HSA EC50 Mean Value.
The mark [4] stands for this setting: GLP1R CRE luc 1% HSA EC50 Mean Value, 1% HSA.

Take `CC[C@H](C)[C@H](NC(=O)[C@H](Cc1ccccc1)NC(=O)[C@H](CCC(=O)O)NC(=O)[C@H](CCCNC(=N)N)NC(=O)[C@@H](NC(=O)[C@H](C)NC(=O)[C@H](CCC(=O)O)NC(=O)[C@H](CCC(=O)O)NC(=O)[C@H](CCC(=O)O)NC(=O)[C@H](CCSC)NC(=O)[C@H](CCC(N)=O)NC(=O)[C@H](CCCCN)NC(=O)[C@H](CO)NC(=O)[C@H](CC(C)C)NC(=O)[C@H](CC(=O)O)NC(=O)[C@H](CO)NC(=O)[C@@H](NC(=O)[C@H](Cc1ccccc1)NC(=O)[C@@H](NC(=O)CNC(=O)[C@H](CCC(=O)O)NC(=O)C(C)(C)NC(=O)[C@@H](N)Cc1c[nH]cn1)[C@@H](C)O)[C@@H](C)O)C(C)C)C(=O)N[C@@H](CCC(=O)O)C(=O)N[C@@H](Cc1c[nH]c2ccccc12)C(=O)N[C@@H](CC(C)C)C(=O)N[C@@H](CCCCN)C(=O)N[C@@H](CC(N)=O)C(=O)N[C@@H](CCCCN)C(=O)NC(C)(C)C(=O)N[C@@H](CC(C)C)C(=O)N[C@@H](CCC(=O)O)C(=O)N[C@@H](Cc1ccccc1)C(=O)N[C@@H](CC(C)C)C(=O)N[C@@H](CCC(=O)O)C(=O)N1CCC[C@H]1C(=O)N[C@@H](CC(C)C)C(N)=O` [Compound 39, [Aib2,Glu21,Lys29,Aib30,Leu31,Glu32,Phe33,Leu34,Glu35,Leu371-Exendin-4-(1-37)-peptide amide] (H-H[Aib]EGTFTSDLSKQMEEEAVREFIEWLKNK[Aib]LEFLEPL-NH2; N-terminus assumed): the values for the EC50 in experiment [1] (setting [3]) and in experiment [1] (setting [4]) were 0.032 nM and 0.013 nM, respectively. Besides, in experiment [2], the “4 h Cholesterol Efflux Emax” value is 113%.
Take `CC[C@H](C)[C@H](NC(=O)[C@H](Cc1ccccc1)NC(=O)[C@H](CCC(=O)O)NC(=O)[C@H](CCCCN)NC(=O)[C@@H](NC(=O)[C@H](C)NC(=O)[C@H](CCC(=O)O)NC(=O)CNC(=O)[C@H](CCC(=O)O)NC(=O)[C@H](CC(C)C)NC(=O)[C@H](Cc1ccc(O)cc1)NC(=O)[C@H](CO)NC(=O)[C@H](CO)NC(=O)[C@@H](NC(=O)[C@H](CC(=O)O)NC(=O)[C@H](CO)NC(=O)[C@@H](NC(=O)[C@H](Cc1ccccc1)NC(=O)[C@@H](NC(=O)CNC(=O)[C@H](CCC(=O)O)NC(=O)C(C)(C)NC(=O)[C@@H](N)Cc1c[nH]cn1)[C@@H](C)O)[C@@H](C)O)C(C)C)C(C)C)C(=O)N[C@@H](C)C(=O)N[C@@H](Cc1c[nH]c2ccccc12)C(=O)N[C@@H](CC(C)C)C(=O)N[C@H](C(=O)N[C@@H](CCC(=O)O)C(=O)N[C@@H](CCCCN)C(=O)NC(C)(C)C(=O)N[C@@H](CCCCN)C(=O)N[C@@H](CCC(=O)O)C(N)=O)C(C)C` [Compound 63, [Aib8,Glu23,Val25,Glu34,Lys35,Aib36,Lys37]-GLP-1-(7-37)-peptidyl-Glu amide] (H-H[Aib]EGTFTSDVSSYLEGEAVKEFIAWLVEK[Aib]KE-NH2): the EC50 in experiment [1] (setting [3]) was 0.014 nM; in experiment [1] (setting [4]), 0.005 nM. Further, in experiment [2], the “4 h Cholesterol Efflux Emax” value came to 135%.
As for `CC[C@H](C)[C@H](NC(=O)[C@H](Cc1ccccc1)NC(=O)[C@H](CCC(=O)O)NC(=O)[C@H](CCC(N)=O)NC(=O)[C@@H](NC(=O)[C@H](C)NC(=O)[C@H](CCC(=O)O)NC(=O)CNC(=O)[C@H](CCC(=O)O)NC(=O)[C@H](CC(C)C)NC(=O)[C@H](Cc1ccc(O)cc1)NC(=O)[C@H](CO)NC(=O)[C@H](CO)NC(=O)[C@@H](NC(=O)[C@H](CC(=O)O)NC(=O)[C@H](CO)NC(=O)[C@@H](NC(=O)[C@H](Cc1ccccc1)NC(=O)[C@@H](NC(=O)CNC(=O)[C@H](CCC(=O)O)NC(=O)C(C)(C)NC(=O)[C@@H](N)Cc1c[nH]cn1)[C@@H](C)O)[C@@H](C)O)C(C)C)C(C)C)C(=O)N[C@@H](C)C(=O)N[C@@H](Cc1c[nH]c2ccccc12)C(=O)N[C@@H](CC(C)C)C(=O)N[C@H](C(=O)N[C@@H](CCC(=O)O)C(=O)N[C@@H](C)C(=O)N[C@H](C(=O)N[C@@H](C)C(=O)N[C@@H](CCC(=O)O)C(=O)N[C@@H](Cc1ccccc1)C(=O)N[C@@H](CC(C)C)C(N)=O)C(C)C)C(C)C` [Compound 94] (H-H[Aib]EGTFTSDVSSYLEGEAVQEFIAWLVEAVAEFL-NH2), it took 0.273 nM to reach a half-maximal effect in experiment [1] (setting [4]) (EC50). Moreover, the “4 h Cholesterol Efflux Emax” value in experiment [2] is recorded as 74%.
Regarding “H-HAEGTFTSDVSSYLEGEAVREFIAWLVHRVREFLEK-OH [Compound 139]”, the EC50 turned out to be 0.039 nM in experiment [1] (setting [3]) and 0.014 nM in experiment [1] (setting [4]). In addition, the “4 h Cholesterol Efflux Emax” value in experiment [2] amounted to 104%.
Turning to `CC[C@H](C)[C@H](NC(=O)[C@H](Cc1ccccc1)NC(=O)[C@H](CCC(=O)O)NC(=O)[C@H](CCCCN)NC(=O)[C@@H](NC(=O)[C@H](C)NC(=O)[C@H](CCC(=O)O)NC(=O)CNC(=O)[C@H](CCC(=O)O)NC(=O)[C@H](CC(C)C)NC(=O)[C@H](Cc1ccc(O)cc1)NC(=O)[C@H](CO)NC(=O)[C@H](CO)NC(=O)[C@@H](NC(=O)[C@H](CC(=O)O)NC(=O)[C@H](CO)NC(=O)[C@@H](NC(=O)[C@H](Cc1ccccc1)NC(=O)[C@@H](NC(=O)CNC(=O)[C@H](CCC(=O)O)NC(=O)C(C)(C)NC(=O)[C@@H](N)Cc1c[nH]cn1)[C@@H](C)O)[C@@H](C)O)C(C)C)C(C)C)C(=O)N[C@@H](C)C(=O)N[C@@H](Cc1c[nH]c2ccccc12)C(=O)N[C@@H](CC(C)C)C(=O)N[C@H](C(=O)N[C@@H](CCC(=O)O)C(=O)N[C@@H](CCCCN)C(=O)NC(C)(C)C(=O)N[C@@H](CCCCN)C(=O)N[C@@H](CCC(=O)O)C(=O)N[C@@H](Cc1ccccc1)C(=O)N[C@@H](CC(C)C)C(=O)N[C@@H](CCC(=O)O)C(=O)N[C@@H](CCCCN)C(N)=O)C(C)C` [Compound 70, [Aib8,Glu23,Val25,Glu34,Lys35,Aib36,Lys37]-GLP-1-(7-37)-peptidyl-Glu-Phe-Leu-Glu-Lys amide], in experiment [1] (setting [3]), the EC50 came to 0.157 nM. Moreover, in experiment [2], the “4 h Cholesterol Efflux Emax” value was found to be 91%.
In the case of “H-HAEGTFTSDVSSYLEGEAVREFIAWLVERVREFLEK-OH [Compound 138]”, the figures for the EC50 in experiment [1] (setting [3]) and in experiment [1] (setting [4]) were 0.041 nM and 0.017 nM, respectively. Further, the “4 h Cholesterol Efflux Emax” value in experiment [2] came to 96%.
For `CC[C@H](C)[C@H](NC(=O)[C@H](Cc1ccccc1)NC(=O)[C@H](CCC(=O)O)NC(=O)[C@H](CCCCN)NC(=O)[C@@H](NC(=O)[C@H](C)NC(=O)[C@H](CCC(=O)O)NC(=O)CNC(=O)[C@H](CCC(=O)O)NC(=O)[C@H](CC(C)C)NC(=O)[C@H](Cc1ccc(O)cc1)NC(=O)[C@H](CO)NC(=O)[C@H](CO)NC(=O)[C@@H](NC(=O)[C@H](CC(=O)O)NC(=O)[C@H](CO)NC(=O)[C@@H](NC(=O)[C@H](Cc1ccccc1)NC(=O)[C@@H](NC(=O)CNC(=O)[C@H](CCC(=O)O)NC(=O)C(C)(C)NC(=O)[C@@H](N)Cc1c[nH]cn1)[C@@H](C)O)[C@@H](C)O)C(C)C)C(C)C)C(=O)N[C@@H](C)C(=O)N[C@@H](Cc1c[nH]c2ccccc12)C(=O)N[C@@H](CC(C)C)C(=O)N[C@H](C(=O)N[C@@H](CCC(=O)O)C(=O)N[C@@H](CCCCN)C(=O)NC(C)(C)C(=O)N[C@@H](CCCCN)C(=O)N[C@@H](CCC(=O)O)C(=O)N[C@@H](Cc1ccccc1)C(=O)N[C@@H](CC(C)C)C(=O)N[C@@H](CCC(=O)O)C(N)=O)C(C)C` [Compound 66, [Aib8,Glu23,Val25,Glu34,Lys35,Aib36,Lys37]-GLP-1-(7-37)-peptidyl-Glu-Phe-Leu-Glu amide] the same measures were 0.101 nM, 0.039 nM and 102%.

As a reminder, the EC50 is the midpoint of the concentration-response curve.
